Measurements as given in paper PMC11040665, “Aminothiazolone Inhibitors Disrupt the Protein–RNA Interaction of METTL16 and Modulate the m^6A RNA Modification” (JACS Au, 2024).
Entries after “also recorded” stand apart in the source; their conditions may differ.

Legend:
[1] = biological target: T1, METTL16 MTD–MAT2A-hp1 RNA interaction (Homo sapiens, UniProt Q86W50); experiment: Electrophoretic mobility shift assay (EMSA) with FAM-MAT2A-hp1 RNA; conditions: 50 nM METTL16, 5 nM FAM-MAT2A-hp1
T1 sequence (Q86W50 1-291): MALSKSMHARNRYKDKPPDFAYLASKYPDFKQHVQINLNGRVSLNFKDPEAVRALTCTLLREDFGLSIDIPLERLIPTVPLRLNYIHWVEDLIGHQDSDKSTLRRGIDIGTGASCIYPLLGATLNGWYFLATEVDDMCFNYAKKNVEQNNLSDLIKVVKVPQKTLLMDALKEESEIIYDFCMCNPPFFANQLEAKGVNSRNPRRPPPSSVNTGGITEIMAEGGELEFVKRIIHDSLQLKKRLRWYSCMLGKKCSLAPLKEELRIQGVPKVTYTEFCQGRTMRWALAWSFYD
Method: METTL16 MTD protein (1–291) was incubated with the indicated compound or DMSO in a buffer containing 20 mM HEPES, pH 7.5, 50 mM NaCl, 0.05% v/v Tween 20, and 0.05 mg/mL BGG at room temperature for 30 min; subsequently, FAM-MAT2A-hp1 RNA probe was added and incubated at room temperature for 10 min, the final of protein and RNA are 50 and 5 nM respectively, and 1% DMSO was used as the control. […] The gel was detected and imaged by Chemi Doc MP (Bio-Rad).

[2] = biological target: T2, METTL16–MAT2A-hp1 mRNA interaction (METTL16 MTD 1–291, FAM-labeled MAT2A-hp1 RNA) (Homo sapiens, UniProt Q86W50); experiment: Fluorescence polarization (FP) assay, disruption of METTL16 binding to FAM-MAT2A-hp1 RNA
T2 sequence (Q86W50 1-291): T1 sequence (Q86W50 1-291)
Method: The binding of METTL16 to the FAM-labeled RNA probe formed a complex that led to a higher FP signal in comparison to that of the unbound RNA probe (Figure 2A). […] The Z-factor of 0.91 indicated the suitability of the assay condition (Figure S2D). […] In both FP assay and EMSA, a final concentration of 50 nM METTL16 and 5 nM FAM-MAT2A-hp was used. The METTL16 MTD (amino acids 1–291) was used in this study unless specifically indicated otherwise.
The FP assay was performed using 384-well black plates (Corning #4514) in a total reaction volume of 20 μL, with the final concentration of protein and RNA being 50 and 5 nM respectively. Compounds were diluted in FP buffer and incubated with protein for 30 min at room temperature, then FAM-MAT2A-hp1 RNA probe was added and the fluorescence polarization was measured using a TECAN Spark plate reader, under the excitation wavelength of 485 nm and the emission wavelength of 535 nm with bandwidth of 20 nm. 1% DMSO was used as the control. The inhibition was calculated with the equation: inhibition = 100%(Control – X)/(Control – Blank); Control: DMSO with protein and FAM-RNA; Blank: DMSO with FAM-RNA; X: compound with protein and FAM-RNA. The IC50 value was further determined using GraphPad Prism 9. […] The polarization was measured under an excitation wavelength of 630 nm and an emission wavelength of 680 nm with a bandwidth of 20 nm.

[3] = biological target: T3, methyltransferase activity of METTL16 MTD toward MAT2A-hp1 (Homo sapiens, UniProt Q86W50); experiment: In vitro methylation assay (MTase Glo); type: biochemical; conditions: RNA substrate MAT2A-hp1
T3 construct: METTL16 MTD (1–291) was subcloned to pOPINB plasmid; His tag followed by HRV 3C cleavage site (N, cleaved yes); made in house; host or cells: E. coli Rosetta (DE3)
T3 sequence (Q86W50 1-291): T1 sequence (Q86W50 1-291)
Method: Next, we evaluated the inhibition of the METTL16 methylation using the MTase Glo assay kit (Promega) measuring the methyltransferase activity based on the formation of the methylation product S-adenosyl homocysteine, which was converted to ADP by the MTase-Glo reagent to trigger a subsequent luciferase reaction (Figure 5E).
The methyltransferase activity of METTL16 MTD was measured using an MTase Glo kit (Promega V7601) following the manufacturer’s instructions. The reaction was carried out in white 384-well plates (Corning #3824), with a total methyltransferase reaction volume of 8 μL, and the final concentrations of METTL16 MTD, MAT2A-hp1, and SAM were 1, 1, and 10 μM, respectively, and 1% of DMSO was used as a control. […] To use SAM at a different final concentration, the concentration of SAM was adjusted accordingly in a 2× substrate solution.

[4] = biological target: T4, METTL16 MTD–U6 snRNA Δ interaction (Homo sapiens, UniProt Q86W50); experiment: FP assay with Cy5-labeled U6 snRNA Δ; type: binding
T4 construct: METTL16 MTD (1–291) was subcloned to pOPINB plasmid; His tag followed by HRV 3C cleavage site (N, cleaved yes); made in house; host or cells: E. coli Rosetta (DE3)
T4 sequence (Q86W50 1-291): T1 sequence (Q86W50 1-291)

[5] = test system: MDA-MB-231 cells; experiment: Cell viability, MDA-MB-231; type: cell-based, human
[6] = test system: MDA-MB-231 cells; experiment: Colony formation assay; type: cell-based, human; conditions: 7 days, three tested concentrations
Method: MDA-MB-231 cells were collected and seeded with the density of 1000 cells per well into 24-well plates; after being cultured overnight, the medium was exchanged and treated with indicated compounds or DMSO (0.5%) as the control. The medium change and treatment were performed every 3 days. After 7 days, the cell culture medium was discarded, and cells were washed with PBS and fixed with 4% paraformaldehyde solution at room temperature for 15 min; the paraformaldehyde solution was removed, and cells were washed with PBS again to remove the paraformaldehyde. Then cells were stained with 0.1% (w/v) crystal violet. After staining for 15 min, the cells were washed with H2O to remove the extra dye and then photographed.

[7] = biological target: T5, METTL16 MTD–GGACU-containing RNA interaction (Homo sapiens, UniProt Q86W50); experiment: EMSA with GGACU-containing RNA; conditions: 5 nM RNA, 600 nM METTL16 MTD
T5 sequence (Q86W50 1-291): T1 sequence (Q86W50 1-291)
Method: METTL16 MTD protein (1–291) was incubated with the indicated compound or DMSO in a buffer containing 20 mM HEPES, pH 7.5, 50 mM NaCl, 0.05% v/v Tween 20, and 0.05 mg/mL BGG at room temperature for 30 min; subsequently, FAM-MAT2A-hp1 RNA probe was added and incubated at room temperature for 10 min, the final of protein and RNA are 50 and 5 nM respectively, and 1% DMSO was used as the control. […] The gel was detected and imaged by Chemi Doc MP (Bio-Rad). […] EMSA for testing compounds with GGAUC-motif containing RNA and METTL16 MTD interaction was performed using the method described above, expecting that the final of METTL16 MTD protein and FAM-labeled-GGACU RNA are 600 nM and 5 nM respectively. EMSA for RNA binding: indicated concentrations of fluorophore-labeled RNA were incubated with indicated concentrations of protein in EMSA buffer for 15 min at room temperature, then loaded to native PAGE gels and imaged with the method described above.

[8] = biological target: T6, METTL16 MTD (methyltransferase domain) (Homo sapiens, UniProt Q86W50 1-291); experiment: competition FP; vs FAM-MAT2A-hp1; more potent than GGACU-RNA and pre-miR-17-hp bp; 20 mM HEPES pH 7.5, 50 mM NaCl, 0.05% Tween 20, 0.05 mg/mL BGG, room temperature; EMSA 6.6% native PAGE 0.5x TBE at 4 C; conditions: protein: recombinant, tags: N-terminal His tag removed by HRV 3C (His-tagged form also purified)
T6 sequence: T1 sequence (Q86W50 1-291)

[9] = biological target: T6, METTL16 MTD (methyltransferase domain); experiment: competition FP; vs FAM-MAT2A-hp1; 20 mM HEPES pH 7.5, 50 mM NaCl, 0.05% Tween 20, 0.05 mg/mL BGG, room temperature; EMSA 6.6% native PAGE 0.5x TBE at 4 C; conditions: protein: recombinant; tags: N-terminal His tag removed by HRV 3C (His-tagged form also purified)

In the case of `COc1ccc(S(=O)(=O)NC2=NC(=O)C(=C3C(=O)Nc4ccc(Cl)cc43)S2)cc1` [Compound 1], the “disruption of METTL16–MAT2A-hp1 RNA binding in EMSA, in words” value [1] is reported as “dose-dependent inhibition” and the IC50 [2] is reported as 16.3 µM.

`O=C1N=C(NS(=O)(=O)c2ccc(C(=O)O)cc2)SC1=C1C(=O)Nc2ccc(Cl)cc21` [Compound 27] was tested, and the “inhibition of the methyltransferase activity of METTL16 MTD, in words” value [3] was “dose-dependently inhibited; also recorded: potent inhibitory activity”, the IC50 [4] was 6.6 µM and the “effect on cell viability, in words” value [5] was “mild antiviability effect”. The “inhibition on colony formation, in words” value [6] was “mild inhibitory activity against colony formation”, the “inhibition of METTL16–GGACU RNA binding in EMSA, in words” value [7] was “dose-dependently inhibited” and the IC50 [2] was 2.7 µM.

GUGCAGGUAGUGAUAUGUGCAUCUACUGCAC (structured_RNA) [pre-miR-17-hp]: binds ([8]; hairpin with two bulges).

GGGUUGACUGUUGAAUCUCAUGGCAACCC (structured_RNA) [pre-miR-21-hp]: binds ([8]; hairpin).

Molecule UUCUUCUGUGGACUGUG (ssRNA) [GGACU-RNA (unlabeled)] has an IC50 [9] of 0.814 µM.
